Key:
Cortical neurone [1] = test: (§1) Neuroprotective activity against OGD-induced neurotoxicity in Sprague-Dawley rat cortical neuron assessed as cell survival rate at 0.1 uM pretreated for 24 hrs followed by incubation in oxygen and glucose deprivation medium for 2 hrs followed by exposure to reoxygenation by re-incubating in normoxia condition for 24 hrs by MTT assay (reference value: 58.5 to 61.2 %); format: functional
Hippocampal neurone [2] = test: Neuroprotective activity against H2O2-induced neurotoxicity in Sprague-Dawley rat hippocampal neuron assessed as increase in cell survival rate incubated for 24 hrs in presence of 150 uM H2O2 by MTT assay; format: functional, cell-based
[3] = Cytotoxicity against Sprague-Dawley rat cortical neuron assessed as cell survival at 3.7 uM incubated for 48 hrs by CellTiter Glo-based luminescence assay relative to control; parameters: species or system Cortical neurone; settings: rat cortical neurons, read-out: Activity
Cortical neurone [4] = test: as §1, with “1” for “0.1”; format: functional
Hippocampal neurone [5] = test: Neuroprotective activity against amyloid beta (1 to 42)-induced neurotoxicity in Sprague-Dawley rat hippocampal neuron assessed as increase in cell survival rate incubated for 48 hrs in presence of amyloid beta (1 to 42) by CellTiter Glo-based luminescence assay; format: functional
Cortical neurone [6] = test: as §1, with “10” for “0.1”; format: functional
[7] = Cytotoxicity against Sprague-Dawley rat cortical neuron assessed as cell survival at 33.3 uM incubated for 48 hrs by CellTiter Glo-based luminescence assay relative to control; parameters: species or system Cortical neurone; settings: rat cortical neurons, read-out: Activity
[8] = Neuroprotective activity against H2O2-induced neurotoxicity in Sprague-Dawley rat hippocampal neuron assessed as cell survival rate at 0.1 uM incubated for 24 hrs in presence of 150 uM H2O2 by MTT assay (reference value: 41.6 to 43.2 %); format: functional, Hippocampal neurone
[9] = Neuroprotective activity against H2O2-induced neurotoxicity in Sprague-Dawley rat hippocampal neuron assessed as cell survival rate at 10 uM incubated for 24 hrs in presence of 150 uM H2O2 by MTT assay (reference value: 41.6 to 43.2 %); format: functional, Hippocampal neurone
[10] = Neuroprotective activity against H2O2-induced neurotoxicity in Sprague-Dawley rat hippocampal neuron assessed as cell survival rate at 1 uM incubated for 24 hrs in presence of 150 uM H2O2 by MTT assay (reference value: 41.6 to 43.2 %); format: functional, Hippocampal neurone
[11] = Cytotoxicity against Sprague-Dawley rat cortical neuron assessed as cell survival at 11.1 uM incubated for 48 hrs by CellTiter Glo-based luminescence assay relative to control; parameters: species or system Cortical neurone; settings: rat cortical neurons, read-out: Activity
[12] = Cytotoxicity against Sprague-Dawley rat cortical neuron assessed as cell survival at 100 uM incubated for 48 hrs by CellTiter Glo-based luminescence assay relative to control; parameters: species or system Cortical neurone; settings: rat cortical neurons, read-out: Activity

Structure (SMILES) | Activity (Cortical neurone [1]) [%] | Activity (Hippocampal neurone [2]) | viability at 48 h, 3.7 µM [3] [%] | Activity (Cortical neurone [4]) [%] | Activity (Hippocampal neurone [5]) | Activity (Cortical neurone [6]) [%] | viability at 48 h, 33.3 µM [7] [%] | Activity [8] [%] | Activity [9] [%] | Activity [10] [%] | viability at 48 h, 11.1 µM [11] [%] | viability at 48 h, 100 µM [12] [%]
COC(=O)C1=CN(C(C)C)C(=O)[C@@H]2C(CN3CCN(Cc4ccc(F)cc4)CC3)=CC[C@H]12.Cl.Cl | 65.4 | Dose-dependent effect | 94.2 | 74.4 | Dose-dependent effect | 86.5 | 88.4 | 60.4 | 72.4 | 67.3 | 98.4 | 80.9
COC(=O)C1=CN(C(C)C)C(=O)[C@@H]2C(CN3CCN(Cc4cccc(C)c4)CC3)=CC[C@H]12.Cl.Cl | 59 | – | – | 71.3 | – | 84.8 | – | – | – | – | – | –
COC(=O)C1=CN(C(C)C)C(=O)[C@@H]2C(CN3CCN(Cc4ccc(C)cc4)CC3)=CC[C@H]12.Cl.Cl | 59 | – | – | 73.1 | – | 85.7 | – | – | – | – | – | –
COc1cc2c(cc1OC)C(=O)C(CC1CCN(Cc3ccccc3)CC1)C2 (configuration not stated) [DONEPEZIL] | 65.5 | – | – | 72.3 | – | 85.9 | – | – | – | – | – | –
COC(=O)C1=CN(C(C)C)C(=O)[C@@H]2C(CN3CCN(Cc4ccc([N+](=O)[O-])cc4)CC3)=CC[C@H]12.Cl.Cl | 67.1 | Dose-dependent effect | 97.2 | 74.3 | Dose-dependent effect | 87.6 | 88.7 | 57.6 | 82.1 | 73.8 | 99.7 | 78.5
CC(=O)N[C@@H](CS)C(=O)O [ACETYLCYSTEINE] | – | – | – | – | – | – | – | 62.6 | 79.1 | 69.5 | – | –
COC(=O)C1=CN(C)C(=O)[C@@H]2C(CN3CCN(Cc4ccc(C)cc4)CC3)=CC[C@H]12.Cl.Cl | 59 | – | – | 66.9 | – | 72.6 | – | – | – | – | – | –
COC(=O)C1=CN(C)C(=O)[C@@H]2C(CN3CCN(Cc4ccc(Cl)cc4)CC3)=CC[C@H]12.Cl.Cl | 62.7 | – | – | 71 | – | 80.1 | – | – | – | – | – | –
COC(=O)C1=CNC(=O)[C@@H]2C(CO)=CC[C@H]12 | 59 | – | – | 69.4 | – | 79.3 | – | 59 | 70.9 | 65.8 | – | –
COC(=O)C1=CN(C)C(=O)[C@@H]2C(CN3CCN(Cc4ccc([N+](=O)[O-])cc4)CC3)=CC[C@H]12.Cl.Cl | 60 | – | – | 66.7 | – | 74.3 | – | – | – | – | – | –
COC(=O)C1=CN(C)C(=O)[C@@H]2C(CN3CCN(Cc4ccccc4)CC3)=CC[C@H]12.Cl.Cl | 58.6 | – | – | 63.7 | – | 72.3 | – | – | – | – | – | –
COC(=O)C1=CN(C)C(=O)[C@@H]2C(CN3CCN(Cc4cccc(C)c4)CC3)=CC[C@H]12.Cl.Cl | 60.8 | – | – | 66.7 | – | 71.9 | – | – | – | – | – | –
COC(=O)C1=CN(C(C)C)C(=O)[C@@H]2C(CN3CCN(Cc4cccc(OC)c4)CC3)=CC[C@H]12.Cl.Cl | 60.6 | – | – | 62.1 | – | 64 | – | – | – | – | – | –
COC(=O)C1=CN(C)C(=O)[C@@H]2C(CN3CCN(Cc4ccc(F)cc4)CC3)=CC[C@H]12.Cl.Cl | 63.8 | Dose-dependent effect | 98.4 | 71.3 | Dose-dependent effect | 85.7 | 85.1 | 62.5 | 78.5 | 70.3 | 96.2 | 78.5
COC(=O)C1=CN(C(C)C)C(=O)[C@@H]2C(CN3CCN(Cc4ccc(C(F)(F)F)cc4)CC3)=CC[C@H]12.Cl.Cl | 59.1 | – | – | 71.6 | – | 85.7 | – | – | – | – | – | –
COC(=O)C1=CN(C(C)C)C(=O)[C@@H]2C(CN3CCN(Cc4cccc(C(F)(F)F)c4)CC3)=CC[C@H]12.Cl.Cl | 58.7 | – | – | 71.6 | – | 85.5 | – | – | – | – | – | –
COC(=O)C1=CN(C)C(=O)[C@@H]2C(CN3CCN(Cc4ccc(C(F)(F)F)cc4)CC3)=CC[C@H]12.Cl.Cl | 63 | – | – | 72.2 | – | 80.9 | – | – | – | – | – | –
COC(=O)C1=CN(C)C(=O)[C@@H]2C(CN3CCN(Cc4cccc(OC)c4)CC3)=CC[C@H]12.Cl.Cl | 59.5 | – | – | 63.8 | – | 72.5 | – | – | – | – | – | –
COC(=O)C1=CN(C(C)C)C(=O)[C@@H]2C(CN3CCN(Cc4ccc(Cl)cc4)CC3)=CC[C@H]12.Cl.Cl | 58.7 | – | – | 64.3 | – | 71.9 | – | – | – | – | – | –
COC(=O)C1=CN(C)C(=O)[C@@H]2C(CN3CCN(Cc4cccc(C(F)(F)F)c4)CC3)=CC[C@H]12.Cl.Cl | 63.3 | – | – | 72.5 | – | 80.3 | – | – | – | – | – | –
COC(=O)C1=CN(C(C)C)C(=O)[C@@H]2C(CN3CCN(Cc4ccccc4)CC3)=CC[C@H]12.Cl.Cl | 64.4 | Dose-dependent effect | 90.7 | 71.8 | Dose-dependent effect | 84.5 | 91.7 | 60.3 | 76.2 | 71 | 96.3 | 82.5
